From patent US5656603A (Loyola University of Chicago, priority 1995, dated 1997)
Read-outs that look alike come from different tables or passages of the source.

Tests used:
[1] = target: T1, dipeptidyl-peptidase IV (EC 3.4.14.5) (Bos taurus, UniProt P81425); assay: Specificity of apstatin: dipeptidyl-peptidase IV; format: biochemical; conditions: detergent extract of bovine lung; Gly-Pro-β-NA, pH 6.8, FLUO
T1 construct: Unless otherwise indicated, the source of each enzyme activity was a detergent extract of bovine lung; from tissue; host or cells: detergent extract of bovine lung
Description: Specificity of Apstatin--Apstatin was assayed for its ability to inhibit several other peptidases. […] Unless otherwise indicated, the source of each enzyme activity was a detergent extract of bovine lung prepared as described in (12-13). Activities were determined by a modification of the fluorescent assay described above (indicated by "FLUO") or by HPLC separation and quantitation of reaction products using the method described in (12) (method "HPLC-1") or the method described below (method "HPLC-2"). […]

[2] = test system: blood pressure response to Bk; conditions: rat, cited from earlier work

T1 sequence (P81425 whole entry): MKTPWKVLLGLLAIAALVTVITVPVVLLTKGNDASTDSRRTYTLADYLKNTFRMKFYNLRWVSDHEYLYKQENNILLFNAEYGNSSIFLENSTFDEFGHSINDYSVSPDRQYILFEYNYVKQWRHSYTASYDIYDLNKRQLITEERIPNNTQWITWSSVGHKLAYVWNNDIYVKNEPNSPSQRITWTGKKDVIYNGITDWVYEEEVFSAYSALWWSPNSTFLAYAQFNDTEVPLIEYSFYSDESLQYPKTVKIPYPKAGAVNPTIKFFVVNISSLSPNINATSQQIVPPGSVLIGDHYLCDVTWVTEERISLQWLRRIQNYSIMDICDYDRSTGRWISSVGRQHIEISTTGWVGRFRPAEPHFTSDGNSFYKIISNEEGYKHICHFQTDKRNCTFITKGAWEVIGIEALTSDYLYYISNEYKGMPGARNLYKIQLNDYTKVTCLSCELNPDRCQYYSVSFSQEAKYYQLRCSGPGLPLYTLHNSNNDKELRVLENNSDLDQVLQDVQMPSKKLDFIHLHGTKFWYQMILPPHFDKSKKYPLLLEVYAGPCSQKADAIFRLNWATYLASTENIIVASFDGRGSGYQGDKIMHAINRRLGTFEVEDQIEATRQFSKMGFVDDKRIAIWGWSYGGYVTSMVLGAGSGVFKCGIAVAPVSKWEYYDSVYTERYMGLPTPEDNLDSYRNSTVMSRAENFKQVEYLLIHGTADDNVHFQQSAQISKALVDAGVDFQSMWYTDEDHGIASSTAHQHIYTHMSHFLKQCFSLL

## C[C@H](NC(=O)[C@@H]1CCCN1C(=O)[C@@H]1CCCN1C(=O)[C@@H](O)[C@H](N)Cc1ccccc1)C(N)=O [apstatin, N-[(2S, 3R)-3-amino-2-hydroxy-4-phenylbutanoyl]-L-prolyl-L-prolyl-Lalaninamide]
[1]
  IC50: 1100 µM
[2]; apstatin alone
  effect on blood pressure decrease caused by intravenous administration of Bk: significantly potentiate the magnitude as well as the duration
[2]; apstatin plus lisinopril versus lisinopril alone
  effect on blood pressure decrease caused by intravenous administration of Bk: more effective in this regard than lisinopril alone
